Laboratory results taken from publication PMC8571951, “An activity‐based bioprobe differentiates a novel small molecule inhibitor from a LOXL2 antibody and provides renewed promise for anti‐fibrotic therapeutic strategies” (Clinical and Translational Medicine, 2021).

Legend:
LOXL2 = target: T1, LOXL2 (Rattus norvegicus, UniProt B5DF27); assay: Ex vivo LOXL2 activity after oral dosing in rats (PXS-5878/Simoa); settings: 30 mg/kg oral
T1 construct: from tissue; host or cells: rat plasma and lung
T1 sequence (B5DF27 26-776): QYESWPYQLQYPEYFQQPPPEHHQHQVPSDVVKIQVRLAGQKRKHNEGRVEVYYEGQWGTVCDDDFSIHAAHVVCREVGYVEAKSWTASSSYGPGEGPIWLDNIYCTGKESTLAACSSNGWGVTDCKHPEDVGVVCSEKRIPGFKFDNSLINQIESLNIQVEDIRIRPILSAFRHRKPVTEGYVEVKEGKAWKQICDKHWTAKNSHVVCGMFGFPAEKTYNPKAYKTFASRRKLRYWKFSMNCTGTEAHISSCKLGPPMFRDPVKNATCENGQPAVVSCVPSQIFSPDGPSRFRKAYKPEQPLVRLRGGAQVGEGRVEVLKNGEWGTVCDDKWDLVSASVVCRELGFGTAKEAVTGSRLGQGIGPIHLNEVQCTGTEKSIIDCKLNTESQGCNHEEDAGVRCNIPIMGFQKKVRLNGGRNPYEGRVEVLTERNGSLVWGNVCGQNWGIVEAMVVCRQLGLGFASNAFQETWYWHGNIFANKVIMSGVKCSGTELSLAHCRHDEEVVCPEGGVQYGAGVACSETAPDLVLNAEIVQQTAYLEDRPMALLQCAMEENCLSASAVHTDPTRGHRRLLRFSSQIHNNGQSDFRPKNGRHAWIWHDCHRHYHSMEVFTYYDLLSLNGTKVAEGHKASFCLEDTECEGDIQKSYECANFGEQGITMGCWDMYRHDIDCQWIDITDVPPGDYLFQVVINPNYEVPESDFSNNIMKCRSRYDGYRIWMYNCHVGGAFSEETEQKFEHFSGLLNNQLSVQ
Experimental: FIGURE 2 Characteristics of PXS‐5338 and inhibition of lysyl oxidase‐like 2 (LOXL2) enzymatic activity in vitro and in vivo. (A) Chemical structure of PXS‐5338. […] (B) Tissue levels of PXS‐5338 measured 1 and 4 h after a single oral dose of 30 mg/kg in the rat. […] Average data from three different animals. (C) Concentration‐dependent inhibition of native […] LOX and rh LOXL1‐4 in a standard Amplex Red assay with 30 min pre‐incubation; n ≥3 independent experiments, standard error of mean (SEM). (D) PXS‐5338 inhibits rh LOXL2 in a time‐dependent manner, with increasing potency observed upon longer incubation with the enzyme. LOXL2 activity data devised from Amplex Red assay using putrescine as substrate and varying pre‐incubation times; n ≥3 independent experiments, standard error of mean (SEM). […] AB0023 and the corresponding isotype control antibody GS834298 were kindly provided by Gilead. Concentration‐response curves for the pan‐LOX inhibitor BAPN and LOXL2‐selective inhibitor PXS‐5338 are included for comparison. Data represented as mean ± SD with n = 5/concentration. […] To enable translation of preclinical data into the clinic, human plasma was incubated with different concentrations of PXS‐5338 for 30 min and the PXS‐5878/Simoa® platform used to measure the residual activity. […]

Oral bioavailability = settings: in vivo

- Inhibition of LOXL2 activity in the lung (as in plasma) (LOXL2; 4 h): almost complete inhibition
- Inhibition of LOXL2 activity remaining (LOXL2; 24 h): no inhibition remained
- Oral bioavailability (Oral bioavailability): good oral bioavailability
SMILES: CC(C)c1c(Cc2ccc(S(C)(=O)=O)nc2)c2ncccc2n1C/C(F)=C/CN [PXS‐5338]
